Holding throughout (type): biochemical
One test deals with T1, ITK (Homo sapiens, UniProt Q08881).
T1 sequence (Q08881 1-620): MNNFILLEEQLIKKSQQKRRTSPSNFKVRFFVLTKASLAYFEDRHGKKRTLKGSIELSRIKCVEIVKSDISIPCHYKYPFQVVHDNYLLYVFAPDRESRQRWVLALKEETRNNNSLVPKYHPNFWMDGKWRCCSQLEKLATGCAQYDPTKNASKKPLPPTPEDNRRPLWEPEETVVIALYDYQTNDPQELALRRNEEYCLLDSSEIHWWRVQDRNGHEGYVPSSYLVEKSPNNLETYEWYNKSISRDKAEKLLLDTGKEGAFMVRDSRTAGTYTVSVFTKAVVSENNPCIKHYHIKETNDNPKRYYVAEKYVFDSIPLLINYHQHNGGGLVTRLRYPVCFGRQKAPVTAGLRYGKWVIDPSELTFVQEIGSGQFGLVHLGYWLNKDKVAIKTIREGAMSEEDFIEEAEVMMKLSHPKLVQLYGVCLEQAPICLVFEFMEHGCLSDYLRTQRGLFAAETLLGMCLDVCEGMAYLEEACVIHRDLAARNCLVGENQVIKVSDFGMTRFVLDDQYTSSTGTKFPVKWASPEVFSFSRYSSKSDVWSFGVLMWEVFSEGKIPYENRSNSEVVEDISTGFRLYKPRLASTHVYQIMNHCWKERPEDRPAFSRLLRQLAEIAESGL
The test can be described thus: ITK IC50 kinase inhibition assay.

The target in another test is BTK (Homo sapiens, UniProt Q06187). Description: BTK IC50 kinase inhibition assay.
For a further test, the target named is T2, JAK3 (Homo sapiens, UniProt P52333).
T2 sequence (P52333 1-1124): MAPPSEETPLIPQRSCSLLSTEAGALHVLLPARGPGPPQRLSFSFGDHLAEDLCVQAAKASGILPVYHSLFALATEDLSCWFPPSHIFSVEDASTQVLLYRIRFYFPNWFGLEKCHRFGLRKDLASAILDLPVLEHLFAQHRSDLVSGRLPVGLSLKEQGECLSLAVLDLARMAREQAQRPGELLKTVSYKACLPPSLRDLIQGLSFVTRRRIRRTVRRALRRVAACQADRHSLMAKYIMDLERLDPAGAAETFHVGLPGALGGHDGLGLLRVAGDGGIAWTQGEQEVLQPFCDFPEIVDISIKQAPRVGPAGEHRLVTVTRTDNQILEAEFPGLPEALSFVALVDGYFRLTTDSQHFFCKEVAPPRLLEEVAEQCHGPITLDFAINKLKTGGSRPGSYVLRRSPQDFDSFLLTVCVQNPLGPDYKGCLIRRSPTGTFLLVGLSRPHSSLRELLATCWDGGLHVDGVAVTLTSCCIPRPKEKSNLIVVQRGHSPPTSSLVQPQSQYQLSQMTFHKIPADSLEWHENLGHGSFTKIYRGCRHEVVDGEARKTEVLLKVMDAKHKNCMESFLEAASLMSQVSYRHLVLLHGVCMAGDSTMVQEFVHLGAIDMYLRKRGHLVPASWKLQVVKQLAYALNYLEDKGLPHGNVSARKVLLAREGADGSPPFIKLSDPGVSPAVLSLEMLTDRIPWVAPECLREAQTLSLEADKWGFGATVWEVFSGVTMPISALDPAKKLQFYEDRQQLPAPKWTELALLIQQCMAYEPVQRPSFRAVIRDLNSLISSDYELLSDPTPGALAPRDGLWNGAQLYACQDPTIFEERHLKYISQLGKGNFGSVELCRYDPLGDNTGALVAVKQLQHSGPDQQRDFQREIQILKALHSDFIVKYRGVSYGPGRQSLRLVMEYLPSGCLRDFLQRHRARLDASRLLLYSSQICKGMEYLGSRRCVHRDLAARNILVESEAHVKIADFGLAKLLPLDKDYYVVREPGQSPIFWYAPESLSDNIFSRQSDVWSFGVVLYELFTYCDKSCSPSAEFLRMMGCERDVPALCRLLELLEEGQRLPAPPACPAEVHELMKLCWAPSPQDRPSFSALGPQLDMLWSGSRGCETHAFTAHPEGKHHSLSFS
Description: JAK3 IC50 kinase inhibition assay.

The target of the next test is T3, TXK (Homo sapiens, UniProt P42681).
T3 sequence (P42681 1-527): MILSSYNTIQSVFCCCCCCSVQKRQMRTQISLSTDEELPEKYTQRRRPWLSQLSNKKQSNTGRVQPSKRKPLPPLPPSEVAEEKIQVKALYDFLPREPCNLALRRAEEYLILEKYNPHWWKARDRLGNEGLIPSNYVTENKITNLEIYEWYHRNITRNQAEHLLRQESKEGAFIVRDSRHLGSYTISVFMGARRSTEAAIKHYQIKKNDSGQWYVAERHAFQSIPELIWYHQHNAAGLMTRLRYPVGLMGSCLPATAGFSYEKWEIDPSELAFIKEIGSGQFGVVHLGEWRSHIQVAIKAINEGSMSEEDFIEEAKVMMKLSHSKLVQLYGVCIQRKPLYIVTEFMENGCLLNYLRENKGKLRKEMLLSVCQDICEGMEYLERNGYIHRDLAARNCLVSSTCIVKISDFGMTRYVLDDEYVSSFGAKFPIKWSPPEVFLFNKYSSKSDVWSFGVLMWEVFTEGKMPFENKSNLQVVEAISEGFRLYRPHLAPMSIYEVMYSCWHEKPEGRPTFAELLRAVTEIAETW
The test can be described thus: TXK IC50 kinase inhibition assay.

We go through ten molecules from patent publication US10870652B2, “Compounds and methods for modulating bruton's tyrosine kinase” (CORVUS PHARMACEUTICALS, INC., priority 2016, dated 2020).

The structures appear in SMILES notation.

BTK, sequence (Q06187 whole entry): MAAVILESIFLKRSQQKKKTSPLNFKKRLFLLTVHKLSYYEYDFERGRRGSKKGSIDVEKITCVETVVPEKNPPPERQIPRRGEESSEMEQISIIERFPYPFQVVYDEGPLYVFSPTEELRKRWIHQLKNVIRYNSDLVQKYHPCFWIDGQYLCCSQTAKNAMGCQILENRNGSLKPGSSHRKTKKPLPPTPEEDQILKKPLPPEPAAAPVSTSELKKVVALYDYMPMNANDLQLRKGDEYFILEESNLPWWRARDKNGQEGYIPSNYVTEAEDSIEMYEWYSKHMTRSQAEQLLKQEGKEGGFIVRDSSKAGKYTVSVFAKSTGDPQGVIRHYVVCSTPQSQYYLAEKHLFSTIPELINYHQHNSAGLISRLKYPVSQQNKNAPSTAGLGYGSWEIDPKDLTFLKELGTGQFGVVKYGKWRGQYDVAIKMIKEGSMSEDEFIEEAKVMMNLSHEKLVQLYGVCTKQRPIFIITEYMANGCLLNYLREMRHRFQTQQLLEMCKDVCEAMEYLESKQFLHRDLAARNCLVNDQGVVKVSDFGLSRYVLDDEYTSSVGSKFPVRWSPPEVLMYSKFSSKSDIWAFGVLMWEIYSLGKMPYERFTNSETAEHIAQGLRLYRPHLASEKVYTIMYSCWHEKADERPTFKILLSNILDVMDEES

Turning to `CN1CCN(CC#CC(=O)N2CC3(CC(n4nc(-c5ccc(Oc6ccccc6)cc5)c5cncnc54)C3)C2)CC1` [Compound A76, 4-(4-Methylpiperazin-1-yl)-1-(6-(3-(4-phenoxyphenyl)-1H-pyrazolo[3,4-d]pyrimidin-1-yl)-2-azaspiro[3.3]heptan-2-yl)but-2-yn-1-one], the IC50 (as a rule, the midpoint of a concentration-inhibition curve) at ITK was > 500 nM; at BTK, < 100 nM; against JAK3, > 500 nM; at TXK, < 100 nM.
For `C=CC(=O)N1CC[C@@H](Cn2nc(-c3ccc(Oc4ccccc4)cc3)c3cncnc32)C1` [Compound A14, (R)-1-(3-((3-(4-phenoxyphenyl)-1H-pyrazolo[34-d]pyrimidin-1-yl)methyl)pyrrolidin-1-yl)prop-2-en-1-one], the IC50 was > 500 nM against ITK, 100 to 500 nM on BTK, > 500 nM against JAK3 and 100 to 500 nM against TXK.
`C=CC(=O)N1CCC[C@@H](n2nc(-c3ccc(Oc4ccccc4)cc3F)c3cnccc32)C1` [Compound A24, (R)-1-(3-(3-(2-fluoro-4-phenoxyphenyl)-1H-pyrazolo[4,3-c]pyridin-1-yl)piperidin-1-yl)prop-2-en-1-one]: the IC50 is > 500 nM at ITK, < 100 nM against BTK, > 500 nM on JAK3 and < 100 nM on TXK.
`C=CC(=O)N1CCC[C@@H](n2nc(-c3ccc(Oc4ccccc4)cc3)c3cncc(C#N)c32)C1` [Compound A72, (R)-1-(1-acryloylpiperidin-3-yl)-3-(4-phenoxyphenyl)-1H-pyrazolo[4,3-c]pyridine-7-carbonitrile]: the IC50 against ITK is > 500 nM; at BTK it was < 100 nM; on JAK3, > 500 nM; against TXK it was < 100 nM.
`CN(C)C/C=C/C(=O)N1CC[C@@H](n2nc(-c3ccc(Oc4ccccc4)cc3)c3cncnc32)C1` [Compound A25]: the IC50 against ITK was > 500 nM; against BTK, < 100 nM; against JAK3 it was > 500 nM; against TXK it was > 500 nM.
Consider `CC#CC(=O)N1CC[C@@H]1Cn1nc(-c2ccc(Oc3ccccc3)cc2)c2cncnc21` [Compound A67, (R)-1-(2-((3-(4-phenoxyphenyl)-1H-pyrazolo[3,4-d]pyrimidin-1-yl)methyl)azetidin-1-yl)but-2-yn-1-one], for which the IC50 against ITK is > 500 nM; against BTK, 100 to 500 nM; against JAK3, > 500 nM; against TXK, > 500 nM.
`C=CC(=O)N1CCC[C@@]1(C)Cn1nc(-c2ccc(Oc3ccccc3)cc2)c2cncnc21` [Compound A45, (S)-1-(2-methyl-2-((3-(4-phenoxyphenyl)-1H-pyrazolo[3,4-d]pyrimidin-1-yl)methyl)pyrrolidin-1-yl)prop-2-en-1-one]: the IC50 against ITK was > 500 nM; against BTK, < 100 nM; against JAK3, > 500 nM; at TXK, < 100 nM.
As to `C=CC(=O)N1CCC[C@H]1Cn1nc(-c2ccc(Oc3ccccc3)cc2)c2cncnc21` [Compound A8, (S)-1-(2-((3-(4-phenoxyphenyl)-1H-pyrazolo[3,4-d]pyrimidin-1-yl)methyl)pyrrolidin-1-yl)prop-2-en-1-one], the IC50 against ITK was > 500 nM; at BTK, < 100 nM; against JAK3 it was > 500 nM; against TXK, < 100 nM.
With `C=CC(=O)N1CCC[C@H]1Cn1nc(-c2ccc(Oc3ccccc3)cc2F)c2cncnc21` [Compound A19, (S)-1-(2-((3-(2-fluoro-4-phenoxyphenyl)-1H-pyrazolo[3,4-d]pyrimidin-1-yl)methyl)pyrrolidin-1-yl)prop-2-en-1-one], the IC50 against ITK was > 500 nM; at BTK, < 100 nM; against JAK3, > 500 nM; on TXK it was < 100 nM.
With `C=CC(=O)Nc1ccccc1Cn1nc(-c2ccc(Oc3ccccc3)cc2)c2cncnc21` [Compound A38, N-(2-((3-(4-phenoxyphenyl)-1H-pyrazolo[3,4-d]pyrimidin-1-yl)methyl)phenyl)acrylamide], the IC50 against ITK is > 500 nM; on BTK, < 100 nM; against JAK3, > 500 nM; on TXK it was < 100 nM.
